How the values were obtained:
[1] = test system: NCI-H1299; experiment: Antiproliferative activity against SMARCA4-deficient human NCI-H1299 cells assessed as cell growth inhibition by measuring maximal efficacy measured after 7 days by WST-8 assay relative to control; format: functional; conditions: time 7 day
[2] = test system: NCI-H1792; experiment: Antiproliferative activity against human NCI-H1792 cells expressing wild-type SMARCA2 assessed as cell growth inhibition by measuring maximal efficacy measured after 7 days by WST-8 assay relative to control; format: functional; conditions: time 7 day
[3] = target: T1, von Hippel-Lindau disease tumor suppressor/SWI/SNF-related matrix-associated actin-dependent regulator of chromatin subfamily A member 2 (Homo sapiens, UniProt P51531+P40337); experiment: In vivo PROTAC activity at VHL/SMARCA2 in SCID mouse xenografted with human MV4-11 cells assessed as reduction of SMARCA2 level in tumor at 50 mg/kg, iv administered as single dose measured after 6 hrs by Western blotting analysis; format: ADME, organism-based; set-up: scale not given: the % may be the effect or the level left
T1 sequence (P51531 whole entry): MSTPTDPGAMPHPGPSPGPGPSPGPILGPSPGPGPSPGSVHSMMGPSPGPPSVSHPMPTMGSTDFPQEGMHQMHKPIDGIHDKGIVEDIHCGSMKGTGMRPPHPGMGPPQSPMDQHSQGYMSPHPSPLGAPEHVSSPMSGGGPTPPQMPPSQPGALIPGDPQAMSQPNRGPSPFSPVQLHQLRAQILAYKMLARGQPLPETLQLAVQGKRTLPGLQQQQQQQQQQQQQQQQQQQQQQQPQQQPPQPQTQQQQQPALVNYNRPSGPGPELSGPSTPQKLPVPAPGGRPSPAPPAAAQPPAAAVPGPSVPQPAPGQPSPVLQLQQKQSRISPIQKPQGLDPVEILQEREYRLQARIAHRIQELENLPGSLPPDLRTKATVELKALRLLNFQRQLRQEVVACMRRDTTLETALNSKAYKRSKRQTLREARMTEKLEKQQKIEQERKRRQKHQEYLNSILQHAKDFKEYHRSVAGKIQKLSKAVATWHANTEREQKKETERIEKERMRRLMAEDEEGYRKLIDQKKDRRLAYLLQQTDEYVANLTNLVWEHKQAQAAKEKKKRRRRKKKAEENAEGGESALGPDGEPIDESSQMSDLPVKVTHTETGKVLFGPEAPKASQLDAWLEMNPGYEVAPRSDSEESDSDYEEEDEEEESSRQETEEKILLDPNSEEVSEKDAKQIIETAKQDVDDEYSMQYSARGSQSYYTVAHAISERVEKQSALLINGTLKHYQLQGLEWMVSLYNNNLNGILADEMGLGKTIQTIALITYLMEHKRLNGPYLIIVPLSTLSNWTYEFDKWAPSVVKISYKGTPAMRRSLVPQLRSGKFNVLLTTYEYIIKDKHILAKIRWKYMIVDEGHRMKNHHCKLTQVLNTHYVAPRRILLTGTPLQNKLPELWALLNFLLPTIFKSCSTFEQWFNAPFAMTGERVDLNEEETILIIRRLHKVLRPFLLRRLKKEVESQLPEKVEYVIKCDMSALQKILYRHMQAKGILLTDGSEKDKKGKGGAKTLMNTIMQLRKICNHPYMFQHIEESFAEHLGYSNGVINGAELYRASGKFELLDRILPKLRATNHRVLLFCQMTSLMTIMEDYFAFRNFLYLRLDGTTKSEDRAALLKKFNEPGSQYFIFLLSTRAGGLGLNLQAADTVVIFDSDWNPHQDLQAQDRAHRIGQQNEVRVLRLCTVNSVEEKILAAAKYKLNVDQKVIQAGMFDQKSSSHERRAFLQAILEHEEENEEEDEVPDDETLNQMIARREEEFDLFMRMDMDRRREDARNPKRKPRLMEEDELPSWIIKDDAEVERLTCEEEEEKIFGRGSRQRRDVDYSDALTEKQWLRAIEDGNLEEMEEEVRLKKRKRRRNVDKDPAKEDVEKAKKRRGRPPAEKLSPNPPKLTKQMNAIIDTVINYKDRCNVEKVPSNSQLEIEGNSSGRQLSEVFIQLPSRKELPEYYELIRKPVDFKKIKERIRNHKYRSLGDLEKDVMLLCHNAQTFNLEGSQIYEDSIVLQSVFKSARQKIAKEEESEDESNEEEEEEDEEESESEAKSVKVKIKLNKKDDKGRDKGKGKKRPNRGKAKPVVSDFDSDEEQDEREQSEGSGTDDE
T1 sequence (P40337 whole entry): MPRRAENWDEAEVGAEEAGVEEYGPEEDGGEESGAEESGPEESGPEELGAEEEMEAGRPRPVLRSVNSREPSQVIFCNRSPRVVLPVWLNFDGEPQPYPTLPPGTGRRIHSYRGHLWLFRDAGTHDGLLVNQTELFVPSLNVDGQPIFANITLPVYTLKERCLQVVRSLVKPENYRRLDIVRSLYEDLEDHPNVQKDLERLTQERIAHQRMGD

[4] = target: T1, von Hippel-Lindau disease tumor suppressor/SWI/SNF-related matrix-associated actin-dependent regulator of chromatin subfamily A member 2; experiment: In vivo PROTAC activity at VHL/SMARCA2 in SCID mouse xenografted with human MV4-11 cells assessed as remaining activity in tumor at 50 mg/kg, iv administered as single dose measured after 48 hrs by Western blotting analysis (reference value: 100 +/- 15 % ); format: ADME, organism-based
[5] = target: von Hippel-Lindau disease tumor suppressor/SWI/SNF-related matrix-associated actin-dependent regulator of chromatin subfamily A member 4 (Homo sapiens, UniProt P51532+P40337); experiment: In vivo PROTAC activity at VHL/SMARCA4 in SCID mouse xenografted with human MV4-11 cells assessed as remaining activity in tumor at 50 mg/kg, iv administered as single dose measured after 24 hrs by Western blotting analysis (reference value: 100 +/- 15 % ); format: ADME, organism-based
Sequence of von Hippel-Lindau disease tumor suppressor/SWI/SNF-related matrix-associated actin-dependent regulator of chromatin subfamily A member 4 (P51532 whole entry): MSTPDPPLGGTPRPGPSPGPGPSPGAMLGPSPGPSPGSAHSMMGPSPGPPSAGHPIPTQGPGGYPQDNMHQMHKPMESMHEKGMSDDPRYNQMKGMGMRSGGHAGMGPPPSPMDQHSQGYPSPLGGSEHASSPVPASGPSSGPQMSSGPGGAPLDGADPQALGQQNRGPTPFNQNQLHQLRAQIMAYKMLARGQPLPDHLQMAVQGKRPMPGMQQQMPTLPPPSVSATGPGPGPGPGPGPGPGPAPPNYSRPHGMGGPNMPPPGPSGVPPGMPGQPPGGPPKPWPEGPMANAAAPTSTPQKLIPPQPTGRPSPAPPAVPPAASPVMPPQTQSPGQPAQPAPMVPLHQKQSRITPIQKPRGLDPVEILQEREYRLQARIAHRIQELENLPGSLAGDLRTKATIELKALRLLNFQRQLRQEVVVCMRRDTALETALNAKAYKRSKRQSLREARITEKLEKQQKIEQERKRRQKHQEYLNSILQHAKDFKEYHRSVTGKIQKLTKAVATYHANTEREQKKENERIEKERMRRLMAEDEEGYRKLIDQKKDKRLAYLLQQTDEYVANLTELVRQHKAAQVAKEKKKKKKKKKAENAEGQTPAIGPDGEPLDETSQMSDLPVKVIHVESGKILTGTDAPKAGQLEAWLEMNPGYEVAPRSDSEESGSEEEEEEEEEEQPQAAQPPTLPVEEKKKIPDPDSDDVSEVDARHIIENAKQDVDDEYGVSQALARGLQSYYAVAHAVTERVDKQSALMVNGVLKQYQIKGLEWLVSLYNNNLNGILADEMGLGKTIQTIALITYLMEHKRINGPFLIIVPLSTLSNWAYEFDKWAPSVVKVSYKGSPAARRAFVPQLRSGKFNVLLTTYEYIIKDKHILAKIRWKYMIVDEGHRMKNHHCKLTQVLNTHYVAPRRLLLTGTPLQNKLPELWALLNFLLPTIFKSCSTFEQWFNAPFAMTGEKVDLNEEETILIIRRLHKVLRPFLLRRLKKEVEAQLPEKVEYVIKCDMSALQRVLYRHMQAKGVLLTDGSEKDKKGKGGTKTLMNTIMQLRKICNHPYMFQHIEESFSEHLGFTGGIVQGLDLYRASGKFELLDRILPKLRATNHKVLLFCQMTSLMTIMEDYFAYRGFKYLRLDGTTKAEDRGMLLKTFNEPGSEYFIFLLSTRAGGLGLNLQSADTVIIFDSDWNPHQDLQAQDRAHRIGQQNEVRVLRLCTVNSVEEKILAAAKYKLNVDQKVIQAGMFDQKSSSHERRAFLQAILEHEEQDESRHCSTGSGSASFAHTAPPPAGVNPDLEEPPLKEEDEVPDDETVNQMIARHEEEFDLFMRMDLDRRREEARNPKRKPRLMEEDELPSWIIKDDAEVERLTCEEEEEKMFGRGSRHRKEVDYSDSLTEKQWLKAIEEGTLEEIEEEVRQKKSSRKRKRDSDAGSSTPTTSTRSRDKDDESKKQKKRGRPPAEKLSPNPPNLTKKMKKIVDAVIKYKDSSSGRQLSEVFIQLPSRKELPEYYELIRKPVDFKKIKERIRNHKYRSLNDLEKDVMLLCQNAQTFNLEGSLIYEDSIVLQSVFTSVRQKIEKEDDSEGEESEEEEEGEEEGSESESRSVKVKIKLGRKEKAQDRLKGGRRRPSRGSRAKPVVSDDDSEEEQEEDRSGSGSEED
Sequence of von Hippel-Lindau disease tumor suppressor/SWI/SNF-related matrix-associated actin-dependent regulator of chromatin subfamily A member 4 (P40337 whole entry): as the sequence (P40337 whole entry) above

Activity [3]: 70%
Activity [4]: 17%
Activity [5]: 71%
Structure (SMILES): Cc1ncsc1-c1ccc([C@H](C)NC(=O)[C@@H]2C[C@@H](O)CN2C(=O)[C@@H](NC(=O)[C@H]2CC[C@H](CN3CC4(CCC(n5cc(-c6cc(-c7ccccc7O)nnc6N)cn5)CC4)C3)CC2)C(C)(C)C)cc1
Imax [1]: 41%
Imax [2]: 25%

From ChEMBL document CHEMBL5325488, “Discovery of SMD-3040 as a Potent and Selective SMARCA2 PROTAC Degrader with Strong in vivo Antitumor Activity” (J Med Chem, 2023)
